Results on 23 molecules are retold here after patent US6034066A, “Cysteine protease inhibitors for use in treatment of IGE mediated allergic diseases” (Peptide Therapeutics Limited, priority 1995, dated 2000).

For this test, the target named is T1, Der p I (Dermatophagoides pteronyssinus, UniProt P08176).
T1 construct: tissue SmithKline-Beecham (crude mite extract); host or cells: house dust mite extract, purified on immobilised anti-Der p I antibody 4C1
T1 sequence (P08176 99-320): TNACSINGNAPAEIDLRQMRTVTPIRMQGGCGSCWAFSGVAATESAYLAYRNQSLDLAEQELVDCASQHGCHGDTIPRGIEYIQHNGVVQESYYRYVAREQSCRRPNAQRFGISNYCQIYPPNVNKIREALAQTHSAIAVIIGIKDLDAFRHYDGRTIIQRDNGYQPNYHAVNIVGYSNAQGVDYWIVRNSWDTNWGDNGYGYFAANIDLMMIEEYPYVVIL
Nature of the test: Inhibition (inactivation) kinetics of Der p I, fluorogenic substrate assay. As to conditions: second order inactivation rate constant, 50 mM potassium phosphate pH 8.25, 1 mM EDTA, 1 mM DTT, 25° C., purified Der p I; for kinact/KI: read-out: kobs /[I]. The class given is biochemical. On the procedure: All Der-p I enzyme assays were routinely carried out in 50 mM potassium phosphate; pH 8.25 containing 1 mM ethylenediaminetetraaceticacid (EDTA) and 1 mM dithiothreitol (DTT). Product formation was monitored with respect to time by measuring the increase in fluorescence emission at 420 nm and exciting at 320 nm. All assays were carried out at 25° C. Stock solutions of the various substrates and/or inhibitors were made up in 100% dimethylsulphoxide (DMSO).
The reaction of enzyme and inhibitor is comprised of two steps. The first is binding of enzyme and inhibitor to produce the enzyme inhibitor complex (E.I). This step is assumed to be rapid and reversible, relative to the other steps, and no chemical reaction occurs. In this case k1 is the second order rate constant for the formation of the E.I complex and k-1 is the first order rate constant for the breakdown of the E.I. The second step in the process, occurring at a rate k2, is the formation of the enzyme-inhibitor covalent complex (EI) resulting in irreversible inactivation of the enzyme.
The practice of inactivation kinetics of enzymes have been described by two standard accepted methods (Schemes 1 and 2). The first (Scheme 1) is the dilution method described by Kitz, C. G. and Wilson, I. B., (1962), J. Biol. Chem., 237, 3245-3249. In this case enzyme and inhibitor are pre-incubated for a set period of time prior to quenching of this reaction by the addition of an excess of substrate. The second method (Scheme 2), is monitoring enzyme inactivation in the presence of substrate and irreversible inhibitors. This method has been described previously (Tian, W. -X. & Tsou, C. -L, (1982), Biochemistry, 21, 1028-1032; Morrison, J. F. & Walsh, C. T., (1988), Adv. Enzymol. Relat. Areas Mol. Biol., 61, 201-301) and the equations describing the kinetics are shown below (Eq. 1, 2 and 3). In both cases the inhibitor concentration employed is at least 10 times greater than the enzyme concentration in order to maintain pseudo-first order conditions.
kapp =k2 [I]/1+[S]/KM [I]+K1) Eq. 1
[Product]=vs t+(v0 -v5)[1-exp(-kapp t)]/kapp +dEq.
second order rate constant=(kapp /[I])(1+[S]/KM) Eq. 3
The apparent inactivation rate constant (kapp) was calculated using Eq. 2; where vo is the initial velocity of the reaction, vs is asymptotic steady-state velocity of the reaction, d is the intercept at time zero. The second order rate was calculated using Eq. 3.
Assays were routinely carried out in 50 mM potassium phosphate; pH 8.25 containing 1 mM ethylenediaminetetraaceticacid (EDTA) and 1 mM dithiothreitol (DTT). The fluorogenic substrate was 2-aminobenzoylvalylalanylnorleucylseryl-(3-nitro)tyrosinyl aspartylamide. Product formation was monitored with respect to time by measuring the increase in fluorescence emission at 420 nm and exciting at 320 nm. Assays were carried out at 25° C. Stock solutions of the various inhibitors were made up in 100% dimethylsulphoxide.
Inactivation kinetics for various inhibitors were carried out using the techniques already described. In the dilution method, generally 100 nM Der p I was mixed and incubated with 0.5-10 uM of the inhibitor and aliquots were taken out at given time points (sampling time) and the residual enzyme activity determined by a ten-fold dilution into assay buffer containing saturating amounts of substrate. The residual activity was related to the sampling time and the curve fitted by computational non-linear least square regression analysis. In cases where the second order rate constants were greater than 10^5 M^-1 s^-1, second order conditions were employed (i.e. equimolar amounts of enzyme and inhibitor). Generally stoichiometric amounts of enzyme and inhibitor were incubated for given time intervals (sampling time) and the reaction stopped by a ten-fold dilution of this mixture by saturating amounts of substrate in assay buffer. […]

Bounds are passed on as bounds.

Consider `CCCC[C@H](NC(=O)[C@H](C)NC(=O)[C@@H](NC(=O)c1ccccc1)C(C)C)C(=O)COC(=O)c1c(C(F)(F)F)cccc1C(F)(F)F` [Compound 3, N-Benzoyl-L-valyl-L-alanyl-L-norleucine 2,6-bis (trifluoromethyl)benzoyloxymethyl ketone], for which the “kobs /[I]” value is > 10^7 M^- s^-1.
On the same count and under the same terms, for `CCCC[C@H](NC(=O)[C@H](C)NC(=O)[C@@H](NC(=O)c1ccccc1)C(C)C)C(=O)COC(=O)c1c(C)cccc1C` [Compound 4, N-Benzoyl-L-valyl-L-alanyl-L-norleucine 2,6-dimethyl benzoyloxy methyl ketone] the value was 1.6 × 10^7 M^- s^-1; for `CCCC[C@H](NC(=O)[C@H](C)NC(=O)[C@@H](NC(=O)c1ccccc1)C(C)C)C(=O)COC(=O)c1c(Cl)cccc1Cl` [Compound 6, N-Benzoyl-L-valyl-L-alanyl-L-norleucine 2,6-dichlorobenzoyloxymethyl ketone], 6.8 × 10^7 M^- s^-1.
Still for that read-out and setting: next, `CCCC[C@H](NC(=O)[C@H](C)NC(=O)[C@@H](NC(=O)c1ccccc1)C(C)C)C(=O)COC(=O)c1ccccc1` [Compound 7, N-Benzoyl-L-valyl-L-alanyl-L-norleucine benzoyloxymethyl ketone]: 3.7 × 10^5 M^- s^-1; `CCCC[C@H](NC(=O)[C@H](C)NC(=O)[C@@H](NC(=O)c1ccccc1)C(C)C)C(=O)COC(=O)c1c(F)c(F)c(F)c(F)c1F` [Compound 8, N-Benzoyl-L-valyl-L-alanyl-L-norleucine 2,3,4,5,6-pentafluoro benzoyloxy methyl ketone]: > 10^7 M^- s^-1; `CCCC[C@H](NC(=O)[C@H](C)NC(=O)[C@@H](NC(=O)c1ccccc1)C(C)C)C(=O)COC(=O)[C@@H](COC(C)(C)C)NC(=O)OCc1ccccc1` [Compound 10, N-Benzoyl-L-valyl-L-alanyl-L-norleucine N-(-benzyloxycarbonyl)-D-serinyl-(O-tert-butyl)oxymethyl ketone]: 1.9 × 10^5 M^- s^-1.
The same measure, in the same setting: for `CCCC[C@H](NC(=O)[C@H](C)NC(=O)[C@@H](NC(=O)c1ccccc1)C(C)C)C(=O)COC(=O)[C@@H](CO)NC(=O)OCc1ccccc1` [Compound 11, N-Benzoyl-L-valyl-L-alanyl-L-norleucine N(-benzyloxycarbonyl)-D-serinyloxy methyl ketone] the value was 1.2 × 10^6 M^- s^-1.
As for `CCCC[C@H](NC(=O)[C@H](C)NC(=O)[C@@H](NC(=O)c1ccccc1)C(C)C)C(=O)COC(=O)c1c(Cl)cccc1Cl` [Compound 13, N-Benzoyl-L-valyl-L-alanyl-L-norleucine 2,6-dichlorophenylacyloxy methyl ketone], the “kobs /[I]” value was 6.6 × 10^5 M^- s^-1.
On the same count and under the same terms, next, `CCCC[C@H](NC(=O)[C@H](C)NC(=O)[C@@H](NC(=O)c1ccccc1)C(C)C)C(=O)NOC(=O)c1ccccc1` [Compound 15, N-(Benzoyl amino-L-valyl-L-alanyl-L-norleucyl)-O-benzoyl hydroxamate]: 1.5 × 10^5 M^- s^-1; `CCCC[C@H](NC(=O)[C@H](C)NC(=O)[C@@H](NC(=O)c1ccccc1)C(C)C)C(=O)NOC(=O)c1c(C)cccc1C` [Compound 16, N-(N-benzoyl-L-valyl-L-alanyl-L-norleucyl)-O-2,6-dimethyl-benzoyl hydroxamate]: 1.6 × 10^4 M^- s^-1; `CCOC(=O)/C=C/[C@H](CC(C)C)NC(=O)[C@H](C)NC(=O)[C@@H](NC(=O)OC(C)(C)C)C(C)C` [Compound 23]: 1.7 × 10^3 M^- s^-1.
The same measure, in the same setting: for `CC(C)C[C@@H](/C=C/C(=O)OCC(F)(F)F)NC(=O)[C@H](C)NC(=O)[C@@H](NC(=O)OC(C)(C)C)C(C)C` [Compound 25] the value was 3.1 × 10^3 M^- s^-1.
For the molecule `CCOC(=O)/C=C/[C@H](CC(C)C)NC(=O)[C@H](C)NC(=O)[C@@H](NC(=O)c1ccccc1)C(C)C` [Compound 26], the “kobs /[I]” value is listed as 4.1 × 10^3 M^- s^-1.
On the same count and under the same terms, for `CCOC(=O)/C=C/[C@H](CC(C)C)NC(=O)[C@H](C)NC(=O)[C@@H](NC(=O)c1ccccc1C(F)(F)F)C(C)C` [Compound 27] the value was 6.3 × 10^3 M^- s^-1; for `CCOC(=O)/C=C/[C@H](CC(C)C)NC(=O)[C@H](C)NC(=O)[C@@H](NC(=O)c1ccc2c(c1)OCO2)C(C)C` [Compound 28], 6.8 × 10^3 M^- s^-1; for `CCOC(=O)/C=C/[C@H](CC(C)C)NC(=O)[C@H](C)NC(=O)[C@@H](NC(=O)Nc1ccccc1)C(C)C` [Compound 29], 4.6 × 10^3 M^- s^-1.
Same read-out and setting: next, `CCOC(=O)/C=C/[C@H](CC(C)C)NC(=O)[C@H](C)NC(=O)[C@@H](NC(=O)N(c1ccccc1)c1ccccc1)C(C)C` [Compound 30]: 7.5 × 10^3 M^- s^-1; `CCOC(=O)/C=C/[C@H](CC(C)C)NC(=O)[C@H](C)NC(=O)[C@@H](NC(=O)C1c2ccccc2Oc2ccccc21)C(C)C` [Compound 34]: 1.1 × 10^4 M^- s^-1.
For `CC(C)C[C@@H](/C=C/S(=O)(=O)c1ccccc1)NC(=O)[C@H](C)NC(=O)[C@@H](NNC(=O)OC(C)(C)C)C(C)C` [Compound 36, (S)-(E)-3-((tert-butoxycarbonylamino-L-valyl)-L-alanyl)amino-1-phenylsulfonyl-5-methyl-1-hexene], the kinact/KI is 6400 M⁻¹ s⁻¹.
Regarding `CC(C)C[C@@H](/C=C/S(C)(=O)=O)NC(=O)[C@H](C)NC(=O)[C@@H](NNC(=O)OC(C)(C)C)C(C)C` [Compound 38, (S)-(E)-3-((tert-butoxycarbonylamino-L-valyl)-L-alanyl)amino-1-methylsulfonyl-5-methyl-1-hexene], the kinact/KI worked out at 1100 M⁻¹ s⁻¹.
As to `CCOS(=O)(=O)/C=C/[C@H](CC(C)C)NC(=O)[C@H](C)NC(=O)[C@@H](NC(=O)OC(C)(C)C)C(C)C` [Compound 40, Ethyl(S)-(E)-3-((tert-butoxycarbonylamino-L-valyl)-L-alanyl)amino-5-methylhexenylsulfonate], the “kobs /[I]” value is 6.9 × 10^4 M^- s^-1.
Same read-out and setting: next, “N-Benzoyl-L-valyl-L-alanyl-L-norleucine 1,1-dimethylpropyloxymethyl ketone [Compound 9]”: 2.3 × 10^4 M^- s^-1.
Same read-out and setting: next, “N-Benzoyl-L-valyl-L-alanyl-L-norleucine 2-furanoxy methyl ketone [Compound 12]”: 1.9 × 10^5 M^- s^-1.
